Reference: patent US20240239790A1, “7-Morpholino-1,6-Naphthyridin-5-yl Derivatives and Pharmaceutical Compositions Thereof Useful as DNA-PK Inhibitor” (adMare Therapeutics Society, priority 2021, published 2024)
Like-named read-outs stand apart in the source and are kept apart here. Marks after values point to notes of the source that are not given here.

Legend:
[1] = Pharmacokinetic study in mice (IV and PO), plasma; assay type: in vivo, mouse; conditions: for Rsq: Mouse Plasma, fit of NCA; for Cmax: read-out: Cmax (5 min)
Procedure: Pharmacokinetic analysis of compounds was conducted following bolus intravenous (IV) or bolus oral (PO) gavage in mice. Female mice (C57BL/6) in the 17-26 g range were weighed, and then administered an individually prescribed dose volume based on body weight of formulated compound via the intravenous (IV; tail vein) or oral gavage (PO) route (IV 5 mL/kg; PO 10 mL/kg). At selected timepoints post administration, blood was collected into vials with anticoagulant, processed for plasma by centrifugation, and then kept frozen ([…]) until analysis.
The in-vivo study plasma samples were analyzed using Ultra Performance Liquid Chromatography (UPLC) with tandem mass spectrometry (MS/MS) detection in multiple reaction monitoring (MRM) mode. A generic bioanalytical method involving plasma sample extraction and cleanup by protein precipitation with acetonitrile was used followed by UPLC-MS/MS analysis.
A brief example of a generic bioanalytical UPLC-MS/MS method used for analysis of compounds in the in-vivo study plasma samples is as follows. Plasma samples were spiked with internal standard prior to extraction and cleanup by protein precipitation with ice cold acetonitrile containing 0.1% (v/v) ammonium hydroxide at a ratio of 3:1 (solvent:plasma) and centrifuged at 18213 rcf for 15 minutes at 4° C. to pellet precipitates. Aliquots of supernatants were transferred to a 96-well plate and evaporated to dryness at 40° C. under a stream of nitrogen gas. Samples were reconstituted in 50:50 acetonitrile/10 mM ammonium acetate buffer pH 8, mixed thoroughly and analyzed using Ultra Performance Liquid Chromatography (UPLC) with tandem mass spectrometry (MS/MS) detection in multiple reaction monitoring (MRM) mode. Matrix-matched calibration standards and quality control (QC) samples were prepared in naïve C57Bl/6 mouse plasma. The UPLC column used was Waters Acquity UPLC BEH C18 1.7 um, 2.1 mm×50 mm (with guard column). The UPLC mobile phase consisted of: Mobile phase A: 10 mM ammonium acetate in Water pH 8, and Mobile phase B: Acetonitrile. Separation was accomplished with a linear gradient of 5% mobile phase B to 95% mobile phase B in 2 min, and a flow rate of 0.35 mL/min. The MS/MS data acquisition was accomplished using 3 MRM Transitions in ESI+ mode. Parent ion mass 508.37 m/z-to-Daughter ions (m/z) 117.05, 232.13 and 270.22. The quantitation of concentrations in test samples was achieved by matrix-matched calibration with normalization using an internal standard. Data acquisition and analysis were performed using Waters MassLynx software with TargetLynx application manager.
Estimation of PK parameters was performed using independent noncompartmental model method by PHOENIX WinNonlin software.

FaDu tumour xenograft = assay: Clonogenic Survival, FaDu tumour xenograft-bearing Rag2M mice, compound ± radiation (CS-ER); assay type: in vivo, mouse
Procedure: FaDu tumour xenograft-bearing Rag2M mice were treated with single administrations of test compounds at indicated doses±radiation as indicated, at time 0.
Mice were irradiated at 1 h post compound administration (unless otherwise indicated), with 300 KV X-rays and a 10 mA current from a Precision XRAD 300 machine (USA) with a beam-hardening filter (2 mm Al+0.25 mm Cu+0.75 mm Sn) and an adjustable site to specimen distance (SSD) at a dose of 8-10 Gy, delivered at a rate of ˜1.05 Gy/min.
Mice were terminated at times after irradiation as indicated, and tumour tissues excised. A portion of tumour approximately 300-500 mg was briefly minced using sterile scissors and placed in a pre-weighed gentleMACS C tube (Miltenyi Biotec cat #130-093-237) and weighed with combined tumour+tube mass recorded. A 5 mL aliquot of enzyme cocktail comprising of trypsin/DNase/collagenase/EDTA-Na2 in PBS (1 mg/ml trypsin+0.26 mg/ml DNase+0.21 mg/ml collagenase+2 mM EDTA-Na2) was added to the tube, which is then run on the gentleMACS Dissociator disaggregation system. Tubes were then incubated at 37° C. and continually rotated for 20 min before again running on the gentleMACS Dissociator program. Samples were then diluted with 5 ml MEM medium containing 5% FBS and filtered (Falcon cell strainer 100 μm, cat #352360). After centrifugation (1100 rpm for 6 minutes at 4° C.) supernatant was aspirated and the cells resuspended in 4 ml cold growth medium (MEM+10% FBS)+50 ul DNase (5 mg/ml DNase solution). Cell numbers were counted from the same cell solution using a hemacytometer. Appropriate dilutions (control: 10,000 cells/ml; 8Gy: 400,000 cells/ml; drug+radiation treated; 500,000 cells/ml) were made and cells then plated in triplicate: control: 100 μl and 300 μl (1000 and 3000 cells/6 cm tissue culture plate); 8Gy: 30 μl, 105 μl and 350 μl (12000, 42000 cells/6 cm plates and 140000 cells/10 cm plate); drug+8Gy: 70 μl, 300p, 1.2 ml (35000 and 150000 cells/6 cm plates and 600000 cells/10 cm plates—only duplicate). Plates were incubated at 37° C. (in a 5% CO2, 5% O2 and balance N2 environment) for 14 days. For a final and accurate automated live-cell counting a solution of Hoechst33342 (0.01 mg/ml)+Propidium Iodide (0.004 mg/ml) in 0.9% saline was mixed with an appropriate cell number dilution of the samples in 96 well plates (50 ul staining solution+50 ul cell suspension of 10000 cells/ml) and images are taken of the wells and cell numbers are calculated by a computer program.
After 14 days plates were removed from the incubator, rinsed with PBS and stained with cold 2 g/L Malachite green oxalate salt solution (Sigma-Aldrich, cat #M6880) for 30 minutes at room temperature. Plates were rinsed with distilled water and dried. Pictures were obtained of the plates and colonies consisting of 50 or more cells were counted using a Stuart Scientific colony counter.
All plates with colonies were analyzed except when colony numbers were so high that the edges of individual colonies could not be determined accurately. Plating efficiency (PE) of each tumour sample was calculated first: PE is a ratio of the number of colonies to the number of cells seeded (sum of all the colonies countable in all the plates of the same sample divided by the sum of cells plated in the same plates). The PE of control tumours was averaged for the calculation of surviving fraction (SF): SF is based on the number of colonies formed in drug and/or radiation treated cells relative to that of untreated control (PE of treated tumor sample divided by PE of control). All treated data points were compared separately to the average of the controls. Finally a Clonogenic Survival Enhancement Ratio (CS-ER) was calculated: the SF of irradiated control groups were divided by the SF of treatment groups to determine treatment group-specific CS-ER values, and these were assigned scores based on defined response ranges: values>6=A, 4-6=B, <4=C.

[2] = female, C57BL/6, po, mouse plasma, PC, 3 mg/kg
[3] = female, C57BL/6, mouse plasma, IV, 1 mg/kg
[4] = female, C57BL/6, mouse plasma, IV, 3 mg/kg
[5] = female, C57BL/6, mouse plasma, PO, 10 mg/kg
[6] = female, C57BL/6, mouse plasma, IV, 3 mg/kg, read-out: AUCINF—obs
[7] = female, C57BL/6, mouse plasma, PO, 10 mg/kg, read-out: AUCINF—obs

| AUC(0-t) [1, 4] [ng·h/mL] | half-life [1, 4] [min] | AUC(0-t) [1, 5] [ng·h/mL] | half-life [1, 5] [min] | Cl_obs ([1]; mouse plasma, IV, 3 mg/kg) [mL/h/kg] | Vz_obs ([1]; mouse plasma, IV, 3 mg/kg) [mL/kg] | Cl_obs ([1]; mouse plasma, PO, 10 mg/kg) [mL/h/kg] | Vz_obs ([1]; mouse plasma, PO, 10 mg/kg) [mL/kg] | AUC(0-inf) [1, 6] [ng·h/mL] | Cmax [1, 4] [ng/mL] | AUC(0-inf) [1, 7] [ng·h/mL] | Cmax [1, 5] [ng/mL] | AUC—% Extrap—obs ([1]; mouse plasma, IV, 3 mg/kg) [%] | AUC—% Extrap—obs ([1]; mouse plasma, PO, 10 mg/kg) [%] | F ([1]; mouse, PO, 10 mg/kg) [%] | Structure (SMILES) | CS-ER Range Score (FaDu tumour xenograft; 30 mpk + 8 Gy, 2 h) | CS-ER Range Score (FaDu tumour xenograft; 30 mpk + 8 Gy, 4 h) | other results |
| --- | --- | --- | --- | --- | --- | --- | --- | --- | --- | --- | --- | --- | --- | --- | --- | --- | --- | --- |
|  |  |  |  |  |  |  |  |  |  |  |  |  |  |  | CN(C)C(=O)COc1cnc(N[C@H]2CC[C@@H](Oc3nc(N4CCOCC4)cc4ncccc34)CC2)nc1 [Compound 54, N,N-Dimethyl-2-((2-(((1s,4s)-4-((7-morpholino-1,6-naphthyridin-5-yl)oxy)cyclohexyl)amino)pyrimidin-5-yl)oxy)acetamide] |  |  | AUC(0-t) [1, 2]: 7650 ng·h/mL; Cmax at 5 min [1, 2]: 2220 ng/mL; half-life [1, 2]: 140 min; AUC(0-inf) ([1]; female, C57BL/6, po, mouse plasma, PC, 3 mg/kg, read-out: AUCINF—obs): 7660 ng·h/mL; AUC(0-t) [1, 3]: 3700 ng·h/mL; C0 [1, 3]: 3310 ng/mL; Cmax at 5 min [1, 3]: 2820 ng/mL; half-life [1, 3]: 101 min; AUC(0-inf) ([1]; female, C57BL/6, mouse plasma, IV, 1 mg/kg, read-out: AUCINF—obs): 3710 ng·h/mL; AUC—% Extrap—obs ([1]; mouse plasma, IV, 1 mg/kg): 0.10%; Cl_obs ([1]; mouse plasma, IV, 1 mg/kg): 264 mL/h/kg; Vz_obs ([1]; mouse plasma, IV, 1 mg/kg): 646 mL/kg; AUC—% Extrap—obs ([1]; mouse plasma, PC, 3 mg/kg): 0.07%; Cl_obs ([1]; mouse plasma, PC, 3 mg/kg): 358^b mL/h/kg; Vz_obs ([1]; mouse plasma, PC, 3 mg/kg): 1205^a mL/kg; F ([1]; mouse, PC, 3 mg/kg): 74%; CS-ER Range Score (FaDu tumour xenograft; 100 mpk + 10 Gy, 0.5 h): B (4-6=B); CS-ER Range Score (FaDu tumour xenograft; 100 mpk + 10 Gy, 4 h): A (values>6=A); CS-ER Range Score (FaDu tumour xenograft; 100 mpk + 10 Gy, 8 h): B (4-6=B); CS-ER Range Score (FaDu tumour xenograft; 100 mpk + 10 Gy, 24 h): A (values>6=A) |
| 5210 | 132 | 12600 | 123 | 561.75 | 1784.9 | 795.88 | 2356.41 |  |  |  |  |  |  |  | O=C(COc1cnc(N[C@H]2CC[C@@H](Oc3nc(N4CCOCC4)cc4ncccc34)CC2)nc1)N1CCOCC1 [Compound 61, 1-Morpholino-2-((2-(((1s,4s)-4-((7-morpholino-1,6-naphthyridin-5-yl)oxy)cyclohexyl)amino)pyrimidin-5-yl)oxy)ethan-1-one] | C (<4=C) | B (4-6=B) | Rsq ([1]; IV, 3 mg/kg): 0.97; Rsq ([1]; PO, 10 mg/kg): 0.93; F ([1]; Mouse, PO 10 mg/kg vs IV 3 mg/kg): 72%; Cmax at 5 min [1, 4]: 4900 ng/mL; AUC(0-inf) ([1]; female, C57BL/6, mouse plasma, IV, 3 mg/kg, read-out: AUCINF_obs): 5340 ng·h/mL; Cmax at 5 min [1, 5]: 3510 ng/mL; AUC(0-inf) ([1]; female, C57BL/6, mouse plasma, PO, 10 mg/kg, read-out: AUCINF_obs): 12600 ng·h/mL; AUC_% Extrap_obs ([1]; mouse plasma, IV, 3 mg/kg): 2.45%; AUC_% Extrap_obs ([1]; mouse plasma, PO, 10 mg/kg): 0.05% |
| 1630 | 278 | 5680 | 324 | 1321.88 | 8824.88 | 1646.25 | 12835.77 | 2270 | 611 | 6070 | 549 | 28.28 | 6.56 | 105 | CN1CCN(CCOc2cnc(N[C@H]3CC[C@@H](Oc4nc(N5CCOCC5)cc5ncccc45)CC3)nc2)CC1 [Compound 69, 5-(2-(4-Methylpiperazin-1-yl)ethoxy)-N-((1s,4s)-4-((7-morpholino-1,6-naphthyridin-5-yl)oxy)cyclohexyl)pyrimidin-2-amine] |  | C (<4=C) |  |
| 7960 | 100 | 18200 | 130 | 367.01 | 885.15 | 548.06 | 1715.97 | 8170 | 6020 | 18200 | 5590 | 2.63 | 0.07 | 69 | O=C(COc1cnc(N[C@H]2CC[C@@H](Oc3nc(N4CCOCC4)cc4ncccc34)CC2)nc1)N1CCC1 [Compound 75, 1-(Azetidin-1-yl)-2-((2-(((1s,4s)-4-((7-morpholino-1,6-naphthyridin-5-yl)oxy)cyclohexyl)amino)pyrimidin-5-yl)oxy)ethan-1-one] | B B (4-6=B) | B B (4-6=B) |  |
|  |  |  |  |  |  |  |  |  |  |  |  |  |  |  | CN(C)C(=O)COc1ccc(C(=O)N[C@H]2CC[C@@H](Oc3nc(N4CCOCC4)cc4ncccc34)CC2)cn1 [Compound 117, 6-(2-(dimethylamino)-2-oxoethoxy)-N-((1s,4s)-4-((7-morpholino-1,6-naphthyridin-5-yl)oxy)cyclohexyl)nicotinamide] | C (<4=C) | B (4-6=B) |  |
|  |  |  |  |  |  |  |  |  |  |  |  |  |  |  | O=S(=O)(CF)Nc1cnc2cc(N3CCOCC3)nc(O[C@H]3CC[C@@H](Nc4ncccn4)CC3)c2c1 [Compound 192, 1-fluoro-N-(7-morpholino-5-(((1s,4s)-4-(pyrimidin-2-ylamino)cyclohexyl)oxy)-1,6-naphthyridin-3-yl)methanesulfonamide] | A (values>6=A) | B (4-6=B) |  |
